Data published in patent publication US8865734B2 (priority 2010, dated 2014).
In brackets after ≈: the same amount, converted by molar mass.

What was measured:
[1] = test system: M. tuberculosis inside the host macrophage; assay: QIM: Quantification of Intracellular Mycobacteria (intracellular growth assay, phenotypic cell-based); settings: Mycobacterium tuberculosis; MIC, 80% bacterial growth inhibition; intracellular growth; read-out: QIM
Summary of the method: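 Phenotypic high-content assay measuring M. tuberculosis multiplication inside host macrophages, run as dose response. MIC is the minimum compound concentration giving 80% bacterial growth inhibition.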

[2] = test system: in vitro grown Mycobacteria (M. tuberculosis); assay: QUM: Quantification of in vitro grown Mycobacteria (in vitro growth fluorescence assay); assay type: cell-based; settings: Mycobacterium tuberculosis; MIC, 80% bacterial growth inhibition; in vitro growth; read-out: QUM
Summary of the method: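 Mycobacterium tuberculosis grown in vitro was quantified by fluorescence across compound dose responses. MIC is defined as the minimum concentration producing 80% growth inhibition.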

CCc1nc2ccc(Cl)cn2c1C(=O)OCc1ccc(-c2ccccc2)cc1 [Compound 161, [1,1′-Biphenyl]-4-ylmethyl 6-chloro-2-ethylimidazo[1,2-a]pyridine-3-carboxylate]
melting point: 122.3 to 123 °C
MIC [1]: < 1 µM
MIC [2]: < 1 µM

CCc1nc2ccc(Cl)cn2c1C(=O)NCc1ccc(Oc2ccc(OC(F)(F)F)cc2)nc1 [Compound 194, 6-Chloro-2-ethyl-N-((6-(4-(trifluoromethoxy)phenoxy)pyridin-3-yl)methyl)imidazo[1,2-a]pyridine-3-carboxamide]
melting point: 154 to 155 °C
MIC [1]: < 1 µM
MIC [2]: 1 to 20 µM (≈ 0.491 to 9.82 µg/mL)

CCc1nc2ccc(Cl)cn2c1C(=O)NCc1ccc(N2CC(C)CC(C)C2)cc1 (stereo not shown) [Compound 216, 6-Chloro-N-(4-(3,5-dimethylpiperidin-1-yl)benzyl)-2-ethylimidazo[1,2-a]pyridine-3-carboxamide]
melting point: 157.2 to 158 °C
MIC [1]: < 1 µM
MIC [2]: < 1 µM

CCc1nc2cc(Cl)ccn2c1C(=O)NCc1ccc(N2CCC(Oc3ccc(F)cc3)CC2)cc1 [Compound 167, 7-Chloro-2-ethyl-N-(4-(4-(4-fluorophenoxy)piperidin-1-yl)benzyl)imidazo[1,2-a]pyridine-3-carboxamide]
melting point: 138 to 139 °C
MIC [1]: < 1 µM
MIC [2]: < 1 µM

CCc1nc2cc(C)ccn2c1C(=O)NCc1ccc(N2CCOCC2)cc1 [Compound 68, 2-Ethyl-7-methyl-N-(4-morpholinobenzyl)imidazo[1,2-a]pyridine-3-carboxamide]
melting point: 190 °C
MIC [1]: < 1 µM
MIC [2]: 1 to 20 µM (≈ 0.378 to 7.57 µg/mL)

CCc1nc2c[n+]([O-])ccn2c1C(=O)NCc1ccc(OC(F)(F)F)cc1 [Compound 156, 2-Ethyl-3-((4-(trifluoromethoxy)benzyl)carbamoyl)imidazo[1,2-a]pyrazine 7-oxide]
melting point: 215 to 216 °C
MIC [1]: > 20 µM
MIC [2]: > 20 µM

CCc1nc2cc(Cl)ccn2c1C(=O)NCc1ccc(N2CCOCC2)cc1 [Compound 89, 7-Chloro-2-ethyl-N-(4-morpholinobenzyl)imidazo[1,2-a]pyridine-3-carboxamide]
melting point: 195 °C
MIC [1]: 1 to 20 µM (≈ 0.399 to 7.98 µg/mL)
MIC [2]: < 1 µM

CCc1nc2ccc(Cl)cn2c1C(=O)NCc1ccc(C#N)cc1 [Compound 146, 6-Chloro-N-(4-cyanobenzyl)-2-ethylimidazo[1,2-a]pyridine-3-carboxamide]
melting point: 223 to 224 °C
MIC [1]: 1 to 20 µM (≈ 0.339 to 6.78 µg/mL)
MIC [2]: > 20 µM

CCc1nc2ccc(Cl)cn2c1C(=O)NCCc1ccc(Cl)cc1 [Compound 158, 6-Chloro-N-(4-chlorophenethyl)-2-ethylimidazo[1,2-a]pyridine-3-carboxamide]
melting point: 158 to 159 °C
MIC [1]: < 1 µM
MIC [2]: < 1 µM

CCc1nc2ccc(Cl)cn2c1C(=O)NCC1CCN(Cc2ccc(F)cc2)CC1 [Compound 227, 6-Chloro-2-ethyl-N-((1-(4-fluorobenzyl)piperidin-4-yl)methyl)imidazo[1,2-a]pyridine-3-carboxamide]
melting point: 176 to 177 °C
MIC [1]: < 1 µM
MIC [2]: 1 to 20 µM (≈ 0.429 to 8.58 µg/mL)

CCc1nc2c(F)cccn2c1C(=O)NCc1ccc(N2CCOCC2)cc1 [Compound 317, 2-Ethyl-8-fluoro-N-(4-morpholinobenzyl)imidazo[1,2-a]pyridine-3-carboxamide]
melting point: 197.3 °C
MIC [1]: < 1 µM
MIC [2]: < 1 µM

CCc1nc2ccc(Cl)cn2c1C(=O)NCc1ccc(N2CCN(Cc3ccc(OC(F)(F)F)cc3)CC2)cc1 [Compound 173, 6-Chloro-2-ethyl-N-(4-(4-(4-(trifluoromethoxy)benzyl)piperazin-1-yl)benzyl)imidazo[1,2-a]pyridine-3-carboxamide]
melting point: 138.1 to 138.7 °C
MIC [1]: < 1 µM
MIC [2]: < 1 µM

CCc1nc2ccccn2c1C(=O)NCc1ccc(N2CCN(c3ccc(F)cc3)CC2)cc1 [Compound 303, 2-Ethyl-N-(4-(4-(4-fluorophenyl)piperazin-1-yl)benzyl)imidazo[1,2-a]pyridine-3-carboxamide]
melting point: 189.2 °C
MIC [1]: < 1 µM
MIC [2]: < 1 µM

CCc1nc2ccc(Cl)cn2c1C(=O)NCC1CCN(Cc2ccc(OC(F)(F)F)cc2)CC1 [Compound 226, 6-Chloro-2-ethyl-N-((1-(4-(trifluoromethoxy)benzyl)piperidin-4-yl)methyl)imidazo[1,2-a]pyridine-3-carboxamide]
melting point: 171 to 172 °C
MIC [1]: < 1 µM
MIC [2]: < 1 µM

CCc1nc2cc(Cl)ccn2c1C(=O)NCc1ccc(N2CCN(c3ccc(OC(F)(F)F)cc3)CC2)cc1 [Compound 179, 7-Chloro-2-ethyl-N-(4-(4-(4-(trifluoromethoxy)phenyl)piperazin-1-yl)benzyl)imidazo[1,2-a]pyridine-3-carboxamide]
melting point: 216.3 to 217 °C
MIC [1]: < 1 µM
MIC [2]: < 1 µM

CCc1nc2cc(N3CCN(c4ccccc4)CC3)ccn2c1C(=O)NCc1ccc(C(F)(F)F)cc1 [Compound 330, 2-Ethyl-7-(4-phenylpiperazin-1-yl)-N-(4-(trifluoromethyl)benzyl)imidazo[1,2-a]pyridine-3-carboxamide]
melting point: 235.2 °C
MIC [1]: < 1 µM
MIC [2]: > 20 µM

CCc1nc2cc(Cl)ccn2c1C(=O)NCc1ccc(N2CCC(c3ccc(Cl)cc3)CC2)cc1 [Compound 338, 7-Chloro-N-(4-(4-(4-chlorophenyl)piperidin-1-yl)benzyl)-2-ethylimidazo[1,2-a]pyridine-3-carboxamide]
melting point: 177 °C
MIC [2]: < 1 µM

CCc1nc2cc(Cl)ccn2c1C(=O)NCc1ccc(N2CCC3CCCCC3C2)cc1 (stereo not shown) [Compound 268, 7-Chloro-2-ethyl-N-(4-(octahydroisoquinolin-2(1H)-yl)benzyl)imidazo[1,2-a]pyridine-3-carboxamide]
melting point: 174.2 °C
MIC [2]: < 1 µM

CCc1nc2ccc(Cl)cn2c1C(=O)NCc1ccc2oc(C3CCCCC3)nc2c1 [Compound 339, 6-Chloro-N-((2-cyclohexylbenzo[d]oxazol-5-yl)methyl)-2-ethylimidazo[1,2-a]pyridine-3-carboxamide]
melting point: 169.7 °C
MIC [2]: < 1 µM

CCc1nc2ccc(C(F)(F)F)cn2c1C(=O)NCc1ccc(N2CCOCC2)cc1 [Compound 321, 2-Ethyl-N-(4-morpholinobenzyl)-6-(trifluoromethyl)imidazo[1,2-a]pyridine-3-carboxamide]
melting point: 207.6 °C
MIC [2]: < 1 µM

CCNC(=O)c1c(CC)nc2ccc(Cl)cn12 [Compound 246, 6-Chloro-N,2-diethylimidazo[1,2-a]pyridine-3-carboxamide]
melting point: 176.7 °C
MIC [2]: > 20 µM

CCc1nc2cc(C(F)(F)F)ccn2c1C(=O)NCc1ccc(N2CCOCC2)cc1 [Compound 322, 2-Ethyl-N-(4-morpholinobenzyl)-7-(trifluoromethyl)imidazo[1,2-a]pyridine-3-carboxamide]
melting point: 174.1 °C
MIC [2]: 1 to 20 µM (≈ 0.432 to 8.65 µg/mL)

CCc1nc2cc(Cl)ccn2c1C(=O)NCc1ccc(N2CCC(C)(C)CC2)cc1 [Compound 274]
melting point: 121.3 °C
MIC [2]: < 1 µM

CCc1nc2c(C(F)(F)F)cccn2c1C(=O)NCc1ccc(N2CCOCC2)cc1 [Compound 323, 2-Ethyl-N-(4-morpholinobenzyl)-8-(trifluoromethyl)imidazo[1,2-a]pyridine-3-carboxamide]
melting point: 200.6 °C
MIC [2]: 1 to 20 µM (≈ 0.432 to 8.65 µg/mL)
